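How tested: cells in 96-well plates exposed to compound for 48 hours at five concentrations. Abbreviation: GI50, concentration required for 50% inhibition of growth.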 Activity calls are given as the source filed them. No stated cut-off is given here; in the data, active = GI50 up to about 1.1 µM and inactive = higher.
Legend:
Experiment in all cases: NCI tumour cell line growth inhibition, 48 h
[1] = tested on: A498
[2] = tested on: A549
[3] = tested on: ACHN
[4] = tested on: CAKI-1
[5] = tested on: CCRF-CEM
[6] = tested on: COLO 205
[7] = tested on: DLD-1
[8] = tested on: DMS-114
[9] = tested on: DMS-273
[10] = tested on: EKVX
[11] = tested on: HCC 2998
[12] = tested on: HCT-116
[13] = tested on: HL-60
[14] = tested on: HOP-62
[15] = tested on: HOP-92
[16] = tested on: HT-29
[17] = tested on: IGROV-1
[18] = tested on: K562
[19] = tested on: KM-20L2
[20] = tested on: KM12
[21] = tested on: LOX IMVI
[22] = tested on: LXFL 529
[23] = tested on: M14
[24] = tested on: M19-MEL
[25] = tested on: MOLT-4
[26] = tested on: Malme-3M
[27] = tested on: NCI-H226
[28] = tested on: NCI-H23
[29] = tested on: NCI-H460
[30] = tested on: NCI-H522
[31] = tested on: OVCAR-3
[32] = tested on: OVCAR-4
[33] = tested on: OVCAR-5
[34] = tested on: RXF 393
[35] = tested on: RXF 631
[36] = tested on: SF-268
[37] = tested on: SF-295
[38] = tested on: SF-539
[39] = tested on: SK-MEL-28
[40] = tested on: SK-MEL-2
[41] = tested on: SK-MEL-5
[42] = tested on: SK-OV-3
[43] = tested on: SN12C
[44] = tested on: SNB-19
[45] = tested on: SNB-75
[46] = tested on: SNB-78
[47] = tested on: SR
[48] = tested on: SW-620
[49] = tested on: TK-10
[50] = tested on: U-251
[51] = tested on: UACC-257
[52] = tested on: UACC-62
[53] = tested on: UO-31
[54] = tested on: XF498
[55] = tested on: 786-0
[56] = tested on: HCT-15
[57] = tested on: OVCAR-8
[58] = tested on: RPMI-8226

Measured: GI50

C=CCCN1CCc2c([nH]c3ccccc23)C1C(=O)O (stereo unspecified)
inactive: [1] > 100 µM | [2] > 100 µM | [3] > 100 µM | [4] > 100 µM | [5] 96.2 µM | [6] > 100 µM | [7] > 100 µM | [8] 63.4 µM | [9] > 100 µM | [10] > 100 µM | [11] > 100 µM | [12] > 100 µM | [13] 93.1 µM | [14] > 100 µM | [15] > 100 µM | [16] > 100 µM | [17] > 100 µM | [18] > 100 µM | [19] > 100 µM | [20] > 100 µM | [21] > 100 µM | [22] > 100 µM | [23] > 100 µM | [24] > 100 µM | [25] > 100 µM | [26] > 100 µM | [27] 89.7 µM | [28] 78 µM | [29] > 100 µM | [30] > 100 µM | [31] > 100 µM | [32] > 100 µM | [33] > 100 µM | [34] > 100 µM | [35] > 100 µM | [36] 78.3 µM | [37] > 100 µM | [38] > 100 µM | [39] > 100 µM | [40] > 100 µM | [41] > 100 µM | [42] > 100 µM | [43] > 100 µM | [44] > 100 µM | [45] 26.9 µM | [46] > 100 µM | [47] > 100 µM | [48] > 100 µM | [49] > 100 µM | [50] > 100 µM | [51] > 100 µM | [52] > 100 µM | [53] > 100 µM | [54] > 100 µM

CC1(C)SCc2nc3ncccc3n21
> 100 µM: [56]
inactive: [55] > 100 µM | [1] > 100 µM | [2] > 100 µM | [3] > 100 µM | [4] > 100 µM | [5] > 100 µM | [6] > 100 µM | [7] > 100 µM | [8] > 100 µM | [10] > 100 µM | [11] > 100 µM | [13] > 100 µM | [14] > 100 µM | [15] > 100 µM | [16] > 100 µM | [17] > 100 µM | [18] > 100 µM | [19] > 100 µM | [20] > 100 µM | [21] > 100 µM | [22] > 100 µM | [23] > 100 µM | [24] > 100 µM | [25] > 100 µM | [26] > 100 µM | [27] > 100 µM | [28] > 100 µM | [29] > 100 µM | [30] > 100 µM | [31] > 100 µM | [32] > 100 µM | [33] > 100 µM | [57] > 100 µM | [58] > 100 µM | [34] > 100 µM | [35] > 100 µM | [36] > 100 µM | [37] > 100 µM | [38] > 100 µM | [39] > 100 µM | [40] > 100 µM | [41] > 100 µM | [42] > 100 µM | [43] > 100 µM | [45] > 100 µM | [46] > 100 µM | [48] > 100 µM | [49] > 100 µM | [50] > 100 µM | [51] > 100 µM | [52] > 100 µM | [53] > 100 µM | [54] > 100 µM

CO/C=C(\Br)c1ccc2c(c1)OCO2
inactive: [55] > 100 µM | [1] > 100 µM | [2] > 100 µM | [3] > 100 µM | [4] > 100 µM | [5] > 100 µM | [8] > 100 µM | [9] > 100 µM | [10] > 100 µM | [12] > 100 µM | [13] > 100 µM | [14] > 100 µM | [15] > 100 µM | [17] > 100 µM | [18] > 100 µM | [20] > 100 µM | [22] > 100 µM | [23] > 100 µM | [24] > 100 µM | [25] 73.5 µM | [26] > 100 µM | [27] > 100 µM | [28] > 100 µM | [30] > 100 µM | [31] > 100 µM | [32] > 100 µM | [33] > 100 µM | [57] > 100 µM | [34] > 100 µM | [35] > 100 µM | [36] > 100 µM | [37] > 100 µM | [38] > 100 µM | [39] > 100 µM | [40] > 100 µM | [42] > 100 µM | [43] > 100 µM | [44] > 100 µM | [45] > 100 µM | [46] > 100 µM | [47] > 100 µM | [48] > 100 µM | [49] > 100 µM | [50] > 100 µM | [51] > 100 µM | [52] 64.9 µM | [53] > 100 µM | [54] > 100 µM

From ChEMBL document CHEMBL1201862, “PubChem BioAssay data set” (2004)
